Drawing on patent US11939314B2, “Quinolin-2-one derivatives” (MERCK PATENT GMBH, priority 2016, dated 2024), this text covers IC50 for 28 compounds.

Each structure is given as a SMILES string. pIC50: −log10 of the molar value.

Assay [1] concerns the target T1, c-Kit(V654A) (Homo sapiens, UniProt P10721, V654A).
T1 construct: amino acids 544-end containing the V654A mutation; GST (N)
Kind of assay: c-Kit(V654A) assay. To be noted: recombinant human c-Kit aa 544-end, 200 μM ATP, 1.4E-06 means 1.4×10^−6, read-out: Inhibition (IC50) of c-KIT (V654A). The class given is biochemical. The gist of the method: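 Radiometric filter-binding read-out: substrate 33P incorporation counted by scintillation after P30 filtermat washes in 75 mM phosphoric acid and methanol. Enzyme: N-GST recombinant human c-Kit aa 544-end carrying V654A.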

In assay [2] the target is T2, PDGFRalpha(V561D) (Homo sapiens, UniProt P16234, V561D).
T2 construct: recombinant human PDGFRalpha, amino acids 550end containing the V561 D mutation; 6His (N)
Kind of assay: PDGFRalpha(V561D) assay. It counts as biochemical. To be noted: recombinant human PDGFRalpha aa 550-end, 200 μM ATP, 1.4E-06 means 1.4×10^−6, read-out: Inhibition (IC50) of PDGFRα (V561D). The gist of the method:
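Radiometric filter-binding assay: substrate phosphorylation by recombinant N-His-tagged human PDGFRα 550-end V561D was quenched with 3% phosphoric acid after 40 min at room temperature, then counted.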

T2 sequence (P16234 550-1089 V561D): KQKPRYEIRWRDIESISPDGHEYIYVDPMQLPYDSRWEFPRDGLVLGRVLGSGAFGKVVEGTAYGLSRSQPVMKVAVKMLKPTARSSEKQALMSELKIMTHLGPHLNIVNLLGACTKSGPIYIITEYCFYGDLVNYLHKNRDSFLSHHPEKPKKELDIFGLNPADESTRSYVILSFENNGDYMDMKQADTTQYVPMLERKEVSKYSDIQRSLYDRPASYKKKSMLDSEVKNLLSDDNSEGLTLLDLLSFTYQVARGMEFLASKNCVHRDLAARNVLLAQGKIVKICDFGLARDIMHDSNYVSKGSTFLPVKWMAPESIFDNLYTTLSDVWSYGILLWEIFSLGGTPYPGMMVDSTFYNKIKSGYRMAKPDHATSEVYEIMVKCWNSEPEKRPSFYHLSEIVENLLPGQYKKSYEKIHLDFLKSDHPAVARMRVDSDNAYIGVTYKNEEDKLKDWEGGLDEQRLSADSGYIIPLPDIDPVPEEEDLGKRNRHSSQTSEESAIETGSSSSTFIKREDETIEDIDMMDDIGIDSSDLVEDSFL
T1 sequence (P10721 544-976 V654A): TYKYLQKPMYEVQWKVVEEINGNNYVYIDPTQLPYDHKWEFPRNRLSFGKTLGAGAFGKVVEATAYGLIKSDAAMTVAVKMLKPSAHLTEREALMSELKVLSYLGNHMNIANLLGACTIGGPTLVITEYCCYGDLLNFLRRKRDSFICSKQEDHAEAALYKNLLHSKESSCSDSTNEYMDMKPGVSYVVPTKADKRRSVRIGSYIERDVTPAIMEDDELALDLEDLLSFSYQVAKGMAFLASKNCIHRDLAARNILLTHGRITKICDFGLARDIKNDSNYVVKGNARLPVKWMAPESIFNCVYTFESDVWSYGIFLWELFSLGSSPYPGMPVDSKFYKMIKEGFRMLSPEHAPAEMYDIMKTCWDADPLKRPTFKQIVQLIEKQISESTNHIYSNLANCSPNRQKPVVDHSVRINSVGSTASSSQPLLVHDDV

For the compound `CC(=O)N1CCN(CCOc2ccc(-n3cc(-c4cc5cc(F)c(F)cc5[nH]c4=O)nn3)cc2)CC1` [A101, 3-(1-{4-[2-(4-acetyl-piperazin-1-yl)-ethoxy]-phenyl}-1H-[1,2,3]triazol-4-yl)-6,7-difluoro-1H-quinolin-2-one], the pIC50 in assay [1] is 7.48; in assay [2], 6.54.

For `CC(=O)OC1CCN(C(=O)c2ccc(-n3cc(-c4cc5cc(F)ccc5[nH]c4=O)nn3)cc2)CC1` [A102, acetic acid 1-{4-[4-(6-fluoro-2-oxo-1,2-dihydro-quinolin-3-yl)-[1,2,3]triazol-1-yl]-benzoyl}-piperidin-4-yl ester], the negative-log IC50 (pIC50) was 7.96 in assay [1] and 7.32 in assay [2].

Consider `CC(=O)OC1CCCN(C(=O)c2ccc(-n3cc(-c4cc5cc(F)ccc5[nH]c4=O)nn3)cc2)C1` (centres unmarked) [A103, acetic acid 1-{4-[4-(6-fluoro-2-oxo-1,2-dihydro-quinolin-3-yl)-[1,2,3]triazol-1-yl]-benzoyl}-piperidin-3-yl ester], for which the pIC50 in assay [1] is 8.07; in assay [2], 7.46.

Take `O=C(c1ccc(-n2cc(-c3cc4cc(F)c(F)cc4[nH]c3=O)nn2)cc1)N1CCC(N2CCCC2)C1` (centres unmarked) [A104, 3-{1-[4-([1,3′]bipyrrolidinyl-1′-carbonyl)-phenyl]-1H-[1,2,3]triazol-4-yl}-6,7-difluoro-1H-quinolin-2-one]: the results for the pIC50 in assay [1] and in assay [2] were 7.62 and 6.82, respectively.

As to `O=C(c1ccc(-n2cc(-c3cc4c(F)cc(F)cc4[nH]c3=O)nn2)cc1)N1CCC(N2CCCC2)C1` (centres unmarked) [A105, 3-{1-[4-([1,3′]bipyrrolidinyl-1′-carbonyl)-phenyl]-1H-[1,2,3]triazol-4-yl}-5,7-difluoro-1H-quinolin-2-one], the negative logarithm of the IC50 (pIC50) in assay [1] is 8.01; in assay [2] it was 6.47.

Take `COCC1CCN(C(=O)c2ccc(-n3cc(-c4cc5cc(F)ccc5[nH]c4=O)nn3)cc2)C1` (centres unmarked) [A106, 6-fluoro-3-{1-[4-(3-methoxymethyl-pyrrolidine-1-carbonyl)-phenyl]-1H-[1,2,3]triazol-4-yl}-1H-quinolin-2-one]: the pIC50 was 8.04 in assay [1] and 9.05 in assay [2].

Take `O=C(c1cccc(-n2cc(-c3cc4cc(F)ccc4[nH]c3=O)nn2)c1)N1CCC(N2CCCC2)C1` (centres unmarked) [A107, 3-{1-[3-([1,3′]bipyrrolidinyl-1′-carbonyl)-phenyl]-1H-[1,2,3]triazol-4-yl}-6-fluoro-1H-quinolin-2-one]: the pIC50 in assay [1] is 7.36; in assay [2] it was 7.64.

In the case of `O=C(c1cccc(-n2cc(-c3cc4cc(F)c(F)cc4[nH]c3=O)nn2)c1)N1CCC(N2CCCC2)C1` (centres unmarked) [A108, 3-{1-[3-([1,3′]bipyrrolidinyl-1′-carbonyl)-phenyl]-1H-[1,2,3]triazol-4-yl}-6,7-difluoro-1H-quinolin-2-one], the pIC50 in assay [1] was 7.08; in assay [2] it was 7.09.

Take `COCC1CCN(C(=O)c2ccc(-n3cc(-c4cc5cc(F)c(F)cc5[nH]c4=O)nn3)cc2)C1` (centres unmarked) [A109, 6,7-difluoro-3-{1-[4-(3-methoxymethyl-pyrrolidine-1-carbonyl)-phenyl]-1H-[1,2,3]triazol-4-yl}-1H-quinolin-2-one]: the negative-log IC50 (pIC50) is 7.92 in assay [1] and 8.47 in assay [2].

Take `CN1CCN(C(=O)c2ccc(-n3cc(-c4cc5cc(F)ccc5[nH]c4=O)nn3)cc2)CCC1=O` [A110, 6-fluoro-3-{1-[4-(4-methyl-5-oxo-[1,4]diazepane-1-carbonyl)-phenyl]-1H-[1,2,3]triazol-4-yl}-1H-quinolin-2-one]: the pIC50 was 7.41 in assay [1] and 7.55 in assay [2].

As to `CO[C@@H]1CCN(C(=O)c2ccc(-n3cc(-c4cc5cc(F)ccc5[nH]c4=O)nn3)cc2)C1` [A111, 6-fluoro-3-{1-[4-((R)-3-methoxy-pyrrolidine-1-carbonyl)-phenyl]-1H-[1,2,3]triazol-4-yl}-1H-quinolin-2-one], the pIC50 was 8.11 in assay [1] and 7.74 in assay [2].

Consider `CO[C@H]1CCN(C(=O)c2ccc(-n3cc(-c4cc5cc(F)ccc5[nH]c4=O)nn3)cc2)C1` [A112, 6-fluoro-3-{1-[4-((S)-3-methoxy-pyrrolidine-1-carbonyl)-phenyl]-1H-[1,2,3]triazol-4-yl}-1H-quinolin-2-one], for which the results for the pIC50 in assay [1] and in assay [2] were 7.80 and 7.19, respectively.

For the compound `CO[C@@H]1CCN(C(=O)c2ccc(-n3cc(-c4cc5cc(F)c(F)cc5[nH]c4=O)nn3)cc2)C1` [A113, 6,7-difluoro-3-{1-[4-((R)-3-methoxy-pyrrolidine-1-carbonyl)-phenyl]-1H-[1,2,3]triazol-4-yl}-1H-quinolin-2-one], the pIC50 in assay [1] was 8.07; in assay [2], 7.44.

Regarding `CO[C@H]1CCN(C(=O)c2ccc(-n3cc(-c4cc5cc(F)c(F)cc5[nH]c4=O)nn3)cc2)C1` [A114, 6,7-difluoro-3-{1-[4-((S)-3-methoxy-pyrrolidine-1-carbonyl)-phenyl]-1H-[1,2,3]triazol-4-yl}-1H-quinolin-2-one], the negative logarithm of the IC50 (pIC50) was 7.70 in assay [1] and 6.85 in assay [2].

Turning to `CN(C)CCc1ccc(-n2cc(-c3cc4cc(F)c(F)cc4[nH]c3=O)nn2)cc1` [A115, 3-{1-[4-(2-dimethylamino-ethyl)-phenyl]-1H-[1,2,3]triazol-4-yl}-6,7-difluoro-1H-quinolin-2-one], the results for the negative-log IC50 (pIC50) in assay [1] and in assay [2] were 6.74 and 5.85, respectively.

Consider `O=c1[nH]c2cc(F)c(F)cc2cc1-c1cn(-c2ccc(CCN3CCCC3)cc2)nn1` [A115a, 6,7-difluoro-3-{1-[4-(2-pyrrolidin-1-yl-ethyl)-phenyl]-1H-[1,2,3]triazol-4-yl}-1H-quinolin-2-one], for which the pIC50 in assay [1] was 6.80; in assay [2], 5.82.

With `O=C(c1ccc(-n2cc(-c3cc4ccc(F)cc4[nH]c3=O)nn2)cc1)N1CCNCC1` [A117, 7-fluoro-3-{1-[4-(piperazine-1-carbonyl)-phenyl]-1H-[1,2,3]triazol-4-yl}-1H-quinolin-2-one], the pIC50 in assay [1] is 7.55; in assay [2] it was 7.96.

For `CN1CCN(C(=O)c2ccc(-n3cc(-c4cc5ccc(F)cc5[nH]c4=O)nn3)cc2)CC1` [A118, 7-fluoro-3-{1-[4-(4-methyl-piperazine-1-carbonyl)-phenyl]-1H-[1,2,3]triazol-4-yl}-1H-quinolin-2-one], the pIC50 in assay [1] is 7.80; in assay [2], 8.30.

Take `O=C(c1ccc(-n2cc(-c3cc4c(F)cccc4[nH]c3=O)nn2)cc1)N1CCNCC1` [A119, 5-fluoro-3-{1-[4-(piperazine-1-carbonyl)-phenyl]-1H-[1,2,3]triazol-4-yl}-1H-quinolin-2-one]: the figures for the pIC50 in assay [1] and in assay [2] were 8.05 and 7.34, respectively.

As to `O=C(c1ccc(-n2cc(-c3cc4cccc(F)c4[nH]c3=O)nn2)cc1)N1CCNCC1` [A120, 8-fluoro-3-{1-[4-(piperazine-1-carbonyl)-phenyl]-1H-[1,2,3]triazol-4-yl}-1H-quinolin-2-one], the negative logarithm of the IC50 (pIC50) in assay [1] was 6.55; in assay [2], 6.64.

As for `O=C(c1ccc(-n2cc(-c3cc4cccnc4[nH]c3=O)nn2)cc1)N1CCNCC1` [A121, 3-{1-[4-(piperazine-1-carbonyl)-phenyl]-1H-[1,2,3]triazol-4-yl}-1H-[1,8]naphthyridin-2-one], the pIC50 was 7.40 in assay [1] and 7.80 in assay [2].

`O=C(c1ccc(-n2cc(-c3cc4cc(F)cnc4[nH]c3=O)nn2)cc1)N1CCNCC1` [A122, 6-fluoro-3-{1-[4-(piperazine-1-carbonyl)-phenyl]-1H-[1,2,3]triazol-4-yl}-1H-[1,8]naphthyridin-2-one]: the pIC50 in assay [1] is 7.14; in assay [2] it was 8.30.

For `O=C(c1ccc(-n2cc(-c3cc4cc(Cl)ccc4[nH]c3=O)nn2)cc1)N1CCNCC1` [A123, 6-chloro-3-{1-[4-(piperazine-1-carbonyl)-phenyl]-1H-[1,2,3]triazol-4-yl}-1H-quinolin-2-one], the pIC50 in assay [1] is 8.30; in assay [2], 9.00.

`O=c1[nH]c2ncc(F)cc2cc1-c1cn(-c2ccc(N3CCCNCC3)cc2)nn1` [A124, 3-[1-(4-[1,4]diazepan-1-yl-phenyl)-1H-[1,2,3]triazol-4-yl]-6-fluoro-1H-[1,8]naphthyridin-2-one]: the pIC50 is 7.18 in assay [1] and 8.05 in assay [2].

On to `O=C(c1cccc(-n2cc(-c3cc4cc(F)ccc4[nH]c3=O)nn2)c1)N1CCNCC1` [A125, 6-fluoro-3-{1-[3-(piperazine-1-carbonyl)-phenyl]-1H-[1,2,3]triazol-4-yl}-1H-quinolin-2-one], for which the pIC50 was 7.47 in assay [1] and 8.22 in assay [2].

`O=C(c1ccc(-n2cc(-c3cc4ccc(Cl)cc4[nH]c3=O)nn2)cc1)N1CCNCC1` [A126, 7-chloro-3-{1-[4-(piperazine-1-carbonyl)-phenyl]-1H-[1,2,3]triazol-4-yl}-1H-quinolin-2-one]: the pIC50 in assay [1] is 7.72; in assay [2], 7.38.

In the case of `O=C(c1ccc(-n2cc(-c3cc4c(F)c(F)ccc4[nH]c3=O)nn2)cc1)N1CCNCC1` [A127, 5,6-difluoro-3-{1-[4-(piperazine-1-carbonyl)-phenyl]-1H-[1,2,3]triazol-4-yl}-1H-quinolin-2-one], the results for the pIC50 in assay [1] and in assay [2] were 7.42 and 7.10, respectively.

As for `O=C(c1ccc(-n2cc(-c3cc4cc(F)c(F)cc4[nH]c3=O)nn2)cc1)N1CCNCC1` [A128, 6,7-difluoro-3-{1-[4-(piperazine-1-carbonyl)-phenyl]-1H-[1,2,3]triazol-4-yl}-1H-quinolin-2-one], the figures for the pIC50 in assay [1] and in assay [2] were 7.39 and 8.01, respectively.

By pIC50 is commonly meant the negative decadic logarithm of the IC50, by convention in mol/L.
